Laboratory results as given in patent US12398109B2, “2-amino-2-(1,2,3-triazole-4-yl)propane-1,3-diol derivative of novel compound for directly inhibiting ASM activity, and use thereof” (KYUNGPOOK NATIONAL UNIVERSITY INDUSTRY-ACADEMIC COOPERATION …, priority 2018, dated 2025).
Each block holds one compound with its values, some of them ahead of it.

Assays:
S1P = S1P level in fibroblasts; conditions: normal or Alzheimer's patient fibroblasts, 10 μM
Experimental: (§2) Human fibroblast lines (normal and PS1) were obtained from Coriell Institute and cultured in a DMEM containing 15% FBS at 37° C. and 5% CO2 and used.
(§3) To measure a concentration level of Sphk, 3 μl of the fibroblast sample was mixed with a Sphk activity buffer and stored at 37° C. Subsequently, 54 μl of ethanol was added and the mixture was centrifuged after terminating a hydrolysis reaction. After 30 μl of a supernatant was transferred to a glass vial, 5 μl of the supernatant was applied to a UPLC system. Each Sphk concentration level was quantified using a UPLC system by comparing the Sphk concentration level with NBD bound to sphingosine and S1P. For extraction and quantification of Ceramide and S1P, lipids were extracted from the samples by a known method, and the dried lipid extract was resuspended in 25 μl of 0.2% Igepal CA-630 (Sigma-Aldrich), and the concentration levels of Ceramide and S1P were quantified using the UPLC system.

Sphk = Sphk activity in fibroblasts; conditions: normal or Alzheimer's patient fibroblasts, 10 μM
Experimental: as §2, §3

S1P receptor 1 (S1PR1) = test: S1PR1 expression in fibroblasts (Western blot); conditions: normal or Alzheimer's patient fibroblasts, 10 μM
Experimental: Human fibroblast lines (normal and PS1) were obtained from Coriell Institute and cultured in a DMEM containing 15% FBS at 37° C. and 5% CO2 and used. Thereafter, the cell lines were treated with 10 μM of each of the synthesized ASM inhibitory compounds and FTY720 (Cayman), and then changes in ASM activity, Ceramide, S1P, and S1PR1 were measured.
Protein expression of S1PR1 was analyzed using Western blotting. First, antibodies against S1PR1 (abcam) and β-actin (Santa Cruz) were used, and densitometric quantification was performed using ImageJ software (US National Institutes of Health).

[1] = Brain distribution after oral administration in normal mice; format: in vivo, mouse; conditions: oral 10 mg/kg
[2] = Stability in mouse liver microsomes; format: in vitro ADME
[3] = Stability in human liver microsomes; format: in vitro ADME
APP/PS1 mouse [4] = test: Open field test and dark & light test in APP/PS1 mouse; format: in vivo; conditions: SCNPA 100 mg/kg/day, FTY720 1 mg/kg/day
Experimental: (§1) In order to confirm a potential effect on learning and memory, a Morris Water Maze (MWM) test was performed. In the MWM, the mouse learned a task 4 times a day for 10 days, a platform was removed on day 11, and aprobe trial was performed. To evaluate activity and anxiety, an open field test and a dark and light test were performed. In the open field test, the mouse was placed in a quadrangular box for 10 minutes and then overall activity and a time spent to move around a wall side and a center were measured. In the dark and light test, the mouse was placed in a quadrangular box consisting of a dark box and a light box for 10 minutes, and a time staying in each box, the number of reciprocating the boxes, and a time to first enter into a light box were measured.

TNF-a, IL-1b, IL-6 = test: mRNA expression of inflammatory cytokines in brain of APP/PS1 mouse (real-time quantitative PCR); format: in vivo; conditions: SCNPA 100 mg/kg/day, FTY720 1 mg/kg/day
Experimental: A real-time quantitative PCR method was used to measure the expression levels of inflammatory response-related cytokines (TNF-α, IL-1b, and IL-6). Total RNA was extracted from the brain tissue using an RNeasy Plus mini kit (Qiagen, Korea, Ltd), and cDNA was synthesized from 5 μg of total RNA using a kit from Clontech Co., Ltd. (Mountain View, CA). In addition, by using a Corbett research RG-6000 real-time PCR instrument, real-time quantitative PCR was performed by setting 95° C., 10 min; 95° C., 10 sec; 58° C., 15 sec; 72° C., 20 sec as one cycle and repeating 40 cycles.

in vivo = conditions: mouse, po, 10 mg/kg
astrocytes (GFAP) = test: Astrocytes (GFAP) in brain of APP/PS1 mouse; conditions: SCNPA 100 mg/kg/day, FTY720 1 mg/kg/day
amyloid-β deposition = test: Amyloid-β deposition in medulla and hippocampus of APP/PS1 mouse (ThioS, Aβ40, Aβ42 staining); format: in vivo; conditions: 100 mg/kg/day
Experimental: In order to confirm whether the inhibition of ASM activity by administration of the ASM inhibitory compounds has an effect on Alzheimer's lesions, first, the medulla and hippocampus regions of the mouse were stained with Thioflavin S (ThioS) according to a known method to confirm protofibril amyloid-β deposition. In addition, immunofluorescence staining of Aβ40 and Aβ42 was performed to confirm the amyloid-β deposition.

APP/PS1 mouse [5] = test: Morris Water Maze test in APP/PS1 mouse; format: in vivo; conditions: compared to SCNPA101 or FTY720
Experimental: as §1

[6] = Pharmacokinetic test in blood after oral or intravenous administration in normal mice; conditions: mouse, 10 mg/kg

Structure (SMILES): CCCCCCCCc1ccc(CCC(N)(CO)CO)cc1 [FTY720]
- expression of S1P (S1P): reduced
- Sphk activity (Sphk): reduced
- expression of S1PR1 (S1P receptor 1 (S1PR1)): reduced

- Kp ([1]; mouse, brain): 3.61
- remaining amount after 30 minutes [2]: 86.36%
- remaining amount after 30 minutes [3]: 7.8%
- bioavailability (in vivo): 19.6%
Structure (SMILES): CCCCCCCCCCCCn1cc(C(N)(CO)CO)nn1 [SCNPA101, 2-amino-2-(1-dodecyl-1H-1,2,3-triazol-4-yl)propane-1,3-diol, reference compound]
- activity and anxiety (APP/PS1 mouse [4]): improved
- gene expression of inflammatory cytokines TNF-a, IL-1b, and IL-6 (TNF-a, IL-1b, IL-6): restored to a normal level
- activity of astrocytes (astrocytes (GFAP)): significantly decreased

- brain distribution values [1]: 3.64
- remaining amount after 30 minutes [2]: 95.66%
- metabolic stability (in words) [3]: high metabolic stability
- bioavailability [6]: 50.3%
Structure (SMILES): CCCCCCCCCn1cc(C(N)(CO)CO)nn1 [SCNPA201, 2-amino-2-(1-nonanyl-1H-1,2,3-triazol-4-yl)propane-1,3-diol]
- Aβ40 deposition (amyloid-β deposition): lowest
- Aβ42 deposition (amyloid-β deposition): lowest
- protofibril Aβ deposition (Thioflavin S) (amyloid-β deposition): lowest
- effect of improving cognition (APP/PS1 mouse [5]): more remarkable
- gene expression of inflammatory cytokines TNF-a, IL-1b, and IL-6 (TNF-a, IL-1b, IL-6): restored to a normal level

- brain distribution values [1]: 1.41
- remaining amount after 30 minutes [2]: 98.21%
- metabolic stability (in words) [3]: high metabolic stability
- bioavailability [6]: 72.3%
Structure (SMILES): CCCCCCn1cc(C(N)(CO)CO)nn1 [SCNPA501, 2-amino-2-(1-hexyl-1H-1,2,3-triazol-4-yl)propane-1,3-diol]
